pIC50: −log10 of the molar value.
Test system: 857933-349-R-J2-PDC complex spheroid viability
Assay: Anticancer human tumor 857933-349-R-J2-PDC patient-derived colon adenocarcinoma cell line growth inhibition [POLQ]
Settings: for pIC50: curve of first compound; for viability, T/C: stronger effect = lower value
Outline: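 Patient-derived tumour cells were co-cultured with HUVEC and mesenchymal stem cells as multicellular spheroids at 37 °C. They were treated with POLQ inhibitors (novobiocin, ART-558, RP6685) alone or combined with other agents. Top concentrations were at or near clinical Cmax (otherwise 10 microM; SN-38 at 1 microM), decreasing in half-log steps.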

[1] = second compound 0.0316 µM, first compound 0.0316 µM
[2] = second compound 0.0316 µM, first compound 0.1 µM
[3] = second compound 0.0316 µM, first compound 0.316 µM
[4] = second compound 0.0316 µM, first compound 1 µM
[5] = second compound 0.0316 µM, first compound 3.16 µM
[6] = second compound 0.0316 µM, first compound 10 µM
[7] = second compound 0.1 µM, first compound 0.0316 µM
[8] = second compound 0.1 µM, first compound 0.1 µM
[9] = second compound 0.1 µM, first compound 0.316 µM
[10] = second compound 0.1 µM, first compound 1 µM
[11] = second compound 0.1 µM, first compound 3.16 µM
[12] = second compound 0.1 µM, first compound 10 µM
[13] = second compound 0.316 µM, first compound 0.0316 µM
[14] = second compound 0.316 µM, first compound 0.1 µM
[15] = second compound 0.316 µM, first compound 0.316 µM
[16] = second compound 0.316 µM, first compound 1 µM
[17] = second compound 0.316 µM, first compound 3.16 µM
[18] = second compound 0.316 µM, first compound 10 µM
[19] = second compound 1 µM, first compound 0.0316 µM
[20] = second compound 1 µM, first compound 0.1 µM
[21] = second compound 1 µM, first compound 0.316 µM
[22] = second compound 1 µM, first compound 1 µM
[23] = second compound 1 µM, first compound 3.16 µM
[24] = second compound 1 µM, first compound 10 µM
[25] = second compound 3.16 µM, first compound 0.0316 µM
[26] = second compound 3.16 µM, first compound 0.1 µM
[27] = second compound 3.16 µM, first compound 0.316 µM
[28] = second compound 3.16 µM, first compound 1 µM
[29] = second compound 3.16 µM, first compound 3.16 µM
[30] = second compound 3.16 µM, first compound 10 µM
[31] = second compound 10 µM, first compound 0.0316 µM
[32] = second compound 10 µM, first compound 0.1 µM
[33] = second compound 10 µM, first compound 0.316 µM
[34] = second compound 10 µM, first compound 1 µM
[35] = second compound 10 µM, first compound 3.16 µM
[36] = second compound 10 µM, first compound 10 µM
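Note: spheroids exposed to compounds for seven days before readout.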

For `CC1COCCN1c1cc(-c2ccnn2C)c2ccnc(-c3ccn[nH]3)c2n1` (centres undefined) + Nc1ccc(C#CCN(C(=O)Cc2ncc(C(F)(F)F)cc2C(F)(F)F)c2ccc(F)cc2)nn1, the pIC50 (second compound 0.0316 µM) was 6.09, the pIC50 (second compound 0.1 µM) was 6.31 and the pIC50 (second compound 0.316 µM) was 6.13. The pIC50 (second compound 1 µM) was 6.35, the pIC50 (second compound 3.16 µM) was 6.57 and the pIC50 (second compound 10 µM) was 6.19. It also gave a viability, T/C [1] of 76.4%, a viability, T/C [2] of 65.6% and a viability, T/C [3] of 62.1%. For the same molecule, the viability, T/C [4] was 50.3%, the viability, T/C [5] was 32.5% and the viability, T/C [6] was 43.8%. It also gave a viability, T/C [7] of 71.5%, a viability, T/C [8] of 65.3% and a viability, T/C [9] of 53%. It also gave a viability, T/C [10] of 47.9%, a viability, T/C [11] of 30.9% and a viability, T/C [12] of 42.8%. The viability, T/C [13] was 81.1%, the viability, T/C [14] was 78.5% and the viability, T/C [15] was 56.2%. The viability, T/C [16] was 51.4%, the viability, T/C [17] was 37.3% and the viability, T/C [18] was 41.3%. The viability, T/C [19] was 74.9%, the viability, T/C [20] was 61.9% and the viability, T/C [21] was 51.5%. It also gave a viability, T/C [22] of 49%, a viability, T/C [23] of 36.9% and a viability, T/C [24] of 45.6%. For the same molecule, the viability, T/C [25] was 76.4%, the viability, T/C [26] was 68.2% and the viability, T/C [27] was 47.4%. It also gave a viability, T/C [28] of 42.9%, a viability, T/C [29] of 42.8% and a viability, T/C [30] of 46.7%. The viability, T/C [31] was 78.2%, the viability, T/C [32] was 62.1% and the viability, T/C [33] was 54.8%. For the same molecule, the viability, T/C [34] was 45.3%, the viability, T/C [35] was 47.2% and the viability, T/C [36] was 45.5%.
`CC1COCCN1c1cc(C2(O)CC3CCC(C2)O3)c2cnn(-c3ccn[nH]3)c2n1` (centres undefined) + Nc1ccc(C#CCN(C(=O)Cc2ncc(C(F)(F)F)cc2C(F)(F)F)c2ccc(F)cc2)nn1 gave a pIC50 (second compound 0.0316 µM) of 6.06, a pIC50 (second compound 0.1 µM) of under 5.00 and a pIC50 (second compound 0.316 µM) of 6.10. It also gave a pIC50 (second compound 1 µM) of 6.18, a pIC50 (second compound 3.16 µM) of under 5.00 and a pIC50 (second compound 10 µM) of under 5.00. It also gave a viability, T/C [1] of 72.7%, a viability, T/C [2] of 76.5% and a viability, T/C [3] of 60.7%. It also gave a viability, T/C [4] of 50.3%, a viability, T/C [5] of 47.4% and a viability, T/C [6] of 47.6%. It also gave a viability, T/C [7] of 74.4%, a viability, T/C [8] of 74.7% and a viability, T/C [9] of 52.7%. It also gave a viability, T/C [10] of 53.1%, a viability, T/C [11] of 45.5% and a viability, T/C [12] of 59%. The viability, T/C [13] was 77.9%, the viability, T/C [14] was 63.2% and the viability, T/C [15] was 58.2%. It also gave a viability, T/C [16] of 46.2%, a viability, T/C [17] of 44.7% and a viability, T/C [18] of 40.1%. The viability, T/C [19] was 78%, the viability, T/C [20] was 70.4% and the viability, T/C [21] was 61.8%. For the same molecule, the viability, T/C [22] was 40.9%, the viability, T/C [23] was 40% and the viability, T/C [24] was 49.2%. The viability, T/C [25] was 79.2%, the viability, T/C [26] was 72.3% and the viability, T/C [27] was 61.4%. It also gave a viability, T/C [28] of 44.1%, a viability, T/C [29] of 49.9% and a viability, T/C [30] of 56.4%. For the same molecule, the viability, T/C [31] was 78.2%, the viability, T/C [32] was 58.9% and the viability, T/C [33] was 62.1%. For the same molecule, the viability, T/C [34] was 54%, the viability, T/C [35] was 48.6% and the viability, T/C [36] was 56%.
